Source: ChEMBL document CHEMBL1149874 (Bioorg Med Chem, 2008)
pIC50, pKi: −log10 of the molar value. Calls of active or inactive are those of the source. The calls are words filed in the database; no cut-off is given here. Residues, ends and D or L forms follow the SMILES beside them.

Experiments:
Mu-type opioid receptor [1] = target: T1, Mu-type opioid receptor (Homo sapiens, UniProt P35372); test: Decrease in internalization of mu opioid receptor in human SH-SY5Y cells; assay type: cell-based
T1 sequence (P35372 whole entry): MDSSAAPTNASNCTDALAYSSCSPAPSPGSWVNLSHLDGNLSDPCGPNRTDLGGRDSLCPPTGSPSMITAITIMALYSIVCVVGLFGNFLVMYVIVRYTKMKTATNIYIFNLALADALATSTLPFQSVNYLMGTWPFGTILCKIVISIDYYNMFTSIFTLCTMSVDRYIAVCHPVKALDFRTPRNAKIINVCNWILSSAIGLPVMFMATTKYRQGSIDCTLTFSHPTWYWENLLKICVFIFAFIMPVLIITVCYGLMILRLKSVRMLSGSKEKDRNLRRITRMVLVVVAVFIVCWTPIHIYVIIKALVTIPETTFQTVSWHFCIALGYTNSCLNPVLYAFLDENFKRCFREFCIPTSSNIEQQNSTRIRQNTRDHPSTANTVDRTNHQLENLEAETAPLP

Mu-type opioid receptor [2] = target: T1, Mu-type opioid receptor; test: Displacement of [3H]DAMGO from mu opioid receptor in human SH-SY5Y cells; assay type: cell-based
Mu-type opioid receptor [3] = target: T1, Mu-type opioid receptor; test: Increase in internalization of mu opioid receptor in human SH-SY5Y cells; assay type: cell-based
Mu-type opioid receptor [4] = target: T1, Mu-type opioid receptor; test: Agonist activity at mu opioid receptor assessed as inhibition of forskolin-induced cAMP production in human SH-SY5Y cells pretreated for 24 hrs with DMEM medium after 15 mins; assay type: functional, cell-based
Mu-type opioid receptor [5] = target: T1, Mu-type opioid receptor; test: Agonist activity at mu opioid receptor assessed as inhibition of forskolin-induced cAMP production in human SH-SY5Y cells pretreated for 24 hrs with excess ligand after 15 mins; assay type: functional, cell-based

Molecule	Activity (Mu-type opioid receptor [1])	pKi (Mu-type opioid receptor [2])	Activity (Mu-type opioid receptor [3])	pIC50 (Mu-type opioid receptor [4])	pIC50 (Mu-type opioid receptor [5])
C[C@H](NC(=O)[C@H](C)NC(=O)[C@@H]1CCCN1C(=O)[C@@H](N)Cc1ccc(O)cc1)C(N)=O (H-YPAA-NH2)	Active	6.15	–	–	–
H-YGGWL-NH2	–	7.92	22%	7.56	7.31
C[C@H](NC(=O)[C@@H]1CCCN1C(=O)[C@@H](N)Cc1ccc(O)cc1)C(=O)N[C@@H](Cc1ccccc1)C(N)=O (H-YPAF-NH2)	Active	6.65	–	–	–
C[C@H](NC(=O)[C@@H](N)Cc1ccc(O)cc1)C(=O)N[C@@H](Cc1c[nH]c2ccccc12)C(=O)N[C@@H](Cc1ccccc1)C(N)=O (H-YAWF-NH2)	–	5.50	–	–	–
C[C@H](NC(=O)[C@H](Cc1c[nH]c2ccccc12)NC(=O)[C@@H]1CCCN1C(=O)[C@@H](N)Cc1ccc(O)cc1)C(N)=O (H-YPWA-NH2)	Active	7.14	–	–	–
H-YGWFL-NH2	–	6.95	40%	6.90	6.88
